Reference: patent US7098001B2, “Polypeptides having dipeptidyl aminopeptidase activity and nucleic acids encoding same” (Novozymes, Inc., priority 1997, dated 2006)
Where a SMILES comes first, the peptide text is derived from it. The star is where a group is joined. pNA = O=[N+]([O-])c1ccc(N*)cc1

Columns and labels:
Assay type in all cases: biochemical
[1] = target: dipeptidyl aminopeptidase I (Aspergillus oryzae, UniProt Q2UH35); test: relative activity on mono-, di- and tri-peptide para-nitroanilide substrates; conditions: enzyme diluted 100-fold, pH 7.5, ambient temperature; for Activity (mOD/min): substrate 2 mg/ml stock
Description: The relative activity of various mono-, di-, and tri-peptide para-nitroanilide substrates were assayed relative to Ala-Pro-pNA with the purified dipeptidyl aminopeptidase I diluted 100-fold in 50 mM sodium phosphate pH 7.5 buffer. Each substrate was dissolved in DMSO to a concentration of 100 mg/ml and then diluted 50 fold in 50 mM sodium phosphate pH 7.5 buffer to 2 mg/ml. The assay was performed by mixing 100 μl of the substrate solution with 100 μl of the dipeptidyl aminopeptidase I solution and monitoring the change in absorbance at 405 nm and ambient temperature.

[2] = substrate: C[C@H](N)C(=O)N1CCC[C@H]1C(=O)Nc1ccc([N+](=O)[O-])cc1; test: kinetic parameters (Lineweaver-Burke plot) for dipeptidyl aminopeptidase I substrates; conditions: other: 50 mM sodium phosphate pH 7.5
Description: (§1) The kinetic parameters for various dipeptidyl aminopeptidase I substrates was determined using the following protocol. The substrates included Ala-Pro-pNA, Asp-Pro-pNA, and Ala-Ala-pNA. Purified dipeptidyl aminopeptidase I with an A280 of 1.521 was diluted 25-fold for Ala-Pro-pNA, 20-fold for Asp-Pro-pNA, and 10-fold for Ala-Ala-pNA in water. Each substrate was dissolved in DMSO to a concentration of 100 mg/ml and then diluted 50 fold in 50 mM sodium phosphate pH 7.5 buffer to 2 mg/ml. In a 96 well microtiter plate, 10 μl of purified dipeptidyl aminopeptidase I was incubated with each substrate as follows except the 200 μl substrate assay was not performed with the Asp-Pro-pNA substrate, and the absorbance at 405 nm was measured for 3 minutes: • 1. 200 μl of 2 mg/ml substrate+0 μl of 50 mM sodium phosphate buffer pH 7.5 • 2. 100 μl of 2 mg/ml substrate+100 μl of 50 mM sodium phosphate buffer pH 7.5 • 3. 50 μl of 2 mg/ml substrate +150 μl of 50 mM sodium phosphate buffer pH 7.5 • 4. 25 μl of 2 mg/ml substrate+175 μl of 50 mM sodium phosphate buffer pH 7.5 • 5. 10 μl of 2 mg/ml substrate+190 μl of 50 mM sodium phosphate buffer pH 7.5 • 6. 5 μl of 2 mg/ml substrate+195 μl of 50 mM sodium phosphate buffer pH 7.5

[3] = substrate: C[C@H](N)C(=O)N[C@@H](C)C(=O)Nc1ccc([N+](=O)[O-])cc1; test: as above; conditions: other: 50 mM sodium phosphate pH 7.5
Description: as §1

[4] = substrate: N[C@@H](CC(=O)O)C(=O)N1CCC[C@H]1C(=O)Nc1ccc([N+](=O)[O-])cc1; test: as above; conditions: other: 50 mM sodium phosphate pH 7.5
Description: as §1

In the case of `C[C@H](N)C(=O)N[C@@H](C)C(=O)Nc1ccc([N+](=O)[O-])cc1` [Ala-Ala-pNA] (H-Ala-Ala-pNA), the “Percent Activity Retative to Ala-Pro-pNA” value [1] is reported as 12.4% and the “Activity (mOD/min)” value [1] is reported as 30.2 mOD/min.

`CC(C)C[C@H](N)C(=O)Nc1ccc([N+](=O)[O-])cc1` [Leu-pNA] was tested, and the “Percent Activity Retative to Ala-Pro-pNA” value [1] was 0% and the “Activity (mOD/min)” value [1] was 0 mOD/min.

With `NCC(=O)N[C@@H](CCCN=C(N)N)C(=O)Nc1ccc([N+](=O)[O-])cc1` [Gly-Arg-pNA] (H-Gly-Arg-pNA) the “Percent Activity Retative to Ala-Pro-pNA” value [1] was 0% and the “Activity (mOD/min)” value [1] was 0 mOD/min.

In the case of `C[C@H](N)C(=O)N1CCC[C@H]1C(=O)Nc1ccc([N+](=O)[O-])cc1` [Ala-Pro-pNA] (H-Ala-Pro-pNA), the “Percent Activity Retative to Ala-Pro-pNA” value [1] is reported as 100% and the “Activity (mOD/min)” value [1] is reported as 244 mOD/min.

For `N=C(N)NCCC[C@H](N)C(=O)N1CCC[C@H]1C(=O)Nc1ccc([N+](=O)[O-])cc1` [Arg-Pro-pNA] (H-Arg-Pro-pNA), the “Percent Activity Retative to Ala-Pro-pNA” value [1] was 42.17% and the “Activity (mOD/min)” value [1] was 103 mOD/min.

`NCC(=O)N[C@@H](CCC(=O)O)C(=O)Nc1ccc([N+](=O)[O-])cc1` [Gly-Glu-pNA] (H-Gly-Glu-pNA) was tested, and the “Percent Activity Retative to Ala-Pro-pNA” value [1] was 0% and the “Activity (mOD/min)” value [1] was less than 2 mOD/min.

In the case of `CC(C)[C@H](N)C(=O)N[C@@H](C)C(=O)Nc1ccc([N+](=O)[O-])cc1` [Val-Ala-pNA] (H-Val-Ala-pNA), the “Percent Activity Retative to Ala-Pro-pNA” value [1] is reported as 20.3% and the “Activity (mOD/min)” value [1] is reported as 49.5 mOD/min.

For `NCC(=O)N1CCCC1C(=O)Nc1ccc([N+](=O)[O-])cc1` (stereo not drawn) [Gly-Pro-pNA], the “Percent Activity Retative to Ala-Pro-pNA” value [1] was 51.25% and the “Activity (mOD/min)” value [1] was 125 mOD/min.

`N[C@@H](CC(=O)O)C(=O)N1CCC[C@H]1C(=O)Nc1ccc([N+](=O)[O-])cc1` [Asp-Pro-pNA] (H-Asp-Pro-pNA) was tested, and the “Percent Activity Retative to Ala-Pro-pNA” value [1] was 29% and the “Activity (mOD/min)” value [1] was 70.95 mOD/min.

For `C[C@H](N)C(=O)N[C@@H](C)C(=O)N1CCC[C@H]1C(=O)Nc1ccc([N+](=O)[O-])cc1` [Ala-Ala-Pro-pNA] (H-Ala-Ala-Pro-pNA), the “Percent Activity Retative to Ala-Pro-pNA” value [1] was 4.3% and the “Activity (mOD/min)” value [1] was 10.6 mOD/min.

For `C[C@H](N)C(=O)Nc1ccc([N+](=O)[O-])cc1` [Ala-pNA], the “Percent Activity Retative to Ala-Pro-pNA” value [1] was 0% and the “Activity (mOD/min)” value [1] was 0 mOD/min.

B1: dipeptidyl aminopeptidase I (Aspergillus oryzae RIB40) (protein)
chain: LDVPRKPHAPTGEGSKRLTFNETVVKQAITPTSRSVQWLSGAEDGSYVYAAEDGSLTIENIVTNESRTLIPADKIPTGKEAFNYWIHPDLSSVLWASNHTKQYRHSFFADYYVQDVESLKSVPLMPDQEGDIQYAQWSPVGNTIAFVRENDLYVWDNGTVTRITDDGGPDMFHGVPDWIYEEEILGDRYALWFSPDGEYLAYLSFNETGVPTYTVQYYMDNQEIAPAYPWELKIRYPKVSQTNPTVTLSLLNIASKEVKQAPIDAFESTDLIIGEVAWLTDTHTTVAAKAFNRVQDQQKVVAVDTASNKATVISDRDGTDGWLDNLLSMKYIGPIKPSDKDAYYIDISDHSGWAHLYLFPVSGGEPIPLTKGDWEVTSILSIDQERQLVYYLSTQHHSTERHLYSVSYSTFAVTPLVDDTVAAYWSASFSANSGYYILTYGGPDVPYQELYTTNSTKPLRTITDNAKVLEQIKDYALPNITYFELPLPSGETLNVMQRLPPGFSPDKKYPILFTPYGGPGAQEVTKRWQALNFKAYVASDSELEYVTWTVDNRGTGFKGRKFRSAVTRQLGLLEAEDQIYAAQQAANIPWIDADHIGIWGWSFGGYLTSKVLEKDSGAFTLGVITAPVSDWRFYDSMYTERYMKTLSTNEEGYETSAVRKTDGFKNVEGGFLIQHGTGDDNVHFQNSAALVDLLMGDGVSPEKLHSQWFTDSDHGISYHGGGVFLYKQLARKLYQEKNRQTQVLMHQWTKKDLEE
With B1 the Km [2] was 140 µM, the kcat [2] was 9.605 s⁻¹ and the Km [3] was 1080 µM. For the same molecule, the kcat [3] was 1.775 s⁻¹, the Km [4] was 632 µM and the kcat [4] was 4.072 s⁻¹.
